Experiment [1] relates to complement serum (guinea pig complement). Description: Anticomplementary activity (inhibition of hemolysis of sensitized erythrocytes). The settings on record: 50% hemolysis inhibition, 37° C. The experiment is classed as biochemical. On the procedure:
The anticomplementary activity of the test compound was measured according to the test method as described in Experimental Immunochemistry, edited by E. A. Kabat and M. M. Mayer, 2nd ed., Springfield, III: C. C. Thomas (1961) pages 133-240.
A mixture of 1 ml of a 5-fold diluted solution of a Veronal buffer solution containing 1.5×10^-4 M Ca^2+ and 5×10^-4 M Mg^2+ and isotonic gelatin, 1.5 ml of complement serum (guinea pig complement) diluted 400 times with a physiological saline solution and 0.05 ml of a solution of a test compound (in this case, a test compound was dissolved in a physiological saline solution) was incubated at 37° C. for 30 minutes. To the said mixture there was added 0.4 ml of sensitized erythrocytes suspension containing 5×10^8 cells/ml and said mixture was incubated at 37° C. further for 60 minutes. After the incubation, the mixture was centrifuged in 3,000 rpm at 4° C. for 10 minutes.
The results are expressed in Table 1 as the concentration of each drugs inhibiting the hemolysis activity by 50% (IC50).

Experiment [2] relates to nephrotoxin-type nephritis. Description: Therapeutic effect on nephrotoxin-type nephritis (modified type of Masugi nephritis), proteinuria level. The class given is in vivo. The settings on record: rats. The protocol:
(i) Preparation of anti-rat kidney rabbit serum.
The kidneys of SD male rats weighing about 250-300 g were sufficiently perfused with 0.9% saline. The renal cortical tissue was homogenized with 0.9% saline using a Teflon homogenizer. 4 ml of the homogenate was then suspended into the same volume of Freund's complete adjuvant. 2 ml of the said mixture was given subcutaneously to male rabbits weighing about 3 kg. 4 weeks later, 2 ml of the mixture was given intramuscularly as a booster. At the 5th week, a blood sample was taken. The serum separated by centrifugation at 3,000 rpm for 30 minutes was inactivated by heating at 56° C. for 30 minutes and preserved by freezing until just before use.
(ii) Induction of experimental nephritis (modified type of Masugi nephritis)
Experimental nephritis was induced in groups of 5 male rats weighing about 150-200 g by a single intravenous injection of 1 ml of the anti-kidney serum obtained in the above procedures.
(iii) Evaluation of anti-nephritic effect of drugs.
Drugs were given to a group of 5 rats once a day for 5 consecutive days from the 2nd day before the injection of anti-kidney serum. Each drug was dissolved into 3% sodium bicarbonate solution and given intraperitoneally in a volume of 1 ml/rat. In addition to the above drug-treated nephritic group, the non-treated-nephritic group (control) was set in the experiment. The proteinuria level (total) amount excreted into the urine over a 12 hour period) was measured using turbidometry employing bovine serum albumin as a control by means of sulfosalicylic acid.

For experiment [3], the system named is blood clot (fresh rabbit blood, urokinase, bovine thrombin). Description: Fibrinolytic activity (modified diluted whole blood clot lysis time method). The class given is biochemical. Particulars: 50 μl of test compound (300 μg/ml), 37° C. The protocol:
The enhancement of the fibrinolytic activity of the test compounds was measured according to the modified diluted whole blood clot lysis time method described in
G. R. Fearnley, G. V. Balmforth, E. Fearnley: Clin. Sci. 16, 645-650 (1957)
I. S. Chohan et al: Thrombos. Diathes. Haemorrh. 33, 226 (1975) and
I. M. Nilsson et al: Handbook of Experimental Pharmacology 46, 110
Fresh rabbit blood was diluted 20 times with 1/15 M phosphate buffer (pH 7.4). A mixture of 400 μl of the diluted blood solution and 50 μl of a test compound (300 μg/ml) was incubated at 37° C. for 30 minutes. To the mixture were added 50 μl of urokinase solution (100 IU/ml) and 50 μl of bovine thrombin (100 N.I.H. u/ml). The clot produced in tubes was incubated at 37° C. for various periods of time. At the end of each incubation interval (15 minutes interval), 2.5 ml of distilled water was added to lyse erythrocytes released from clotted blood and absorbance (OD541) of the supernatant separated by centrifugation (3,000 rpm for 10 minutes) from the reaction mixture was measured. The fibrinolytic activity of the test compound was determined by the time in minutes needed for the complete lysis of the blood clot.
In the absence of a test compound, it took more than 2 hours to lyse blood clot in the above condition. However, blood clot was lysed in the presence of test compounds after 15 minutes (symbol: ++) and 45 minutes (symbol: +) incubation, respectively. Samples which were incapable of lysing blood clot within 1 hour incubation were expressed as symbol (-).

Setting [4] is: 10 mg/kg intraperitoneally once a day for 5 days.
The mark [5] stands for this setting: 30 mg/kg intraperitoneally once a day for 5 days.

These results are taken from patent publication US4436726A, “N-Acylpeptide compound, processes for the preparation thereof and the pharmaceutical compositions” (Fujisawa Pharmaceutical Co., Ltd., priority 1980, dated 1984).

`CCCCCCCCCCCCCCCC(=O)OC(CCCCCCCCCCCCCCC)CC(=O)NCC(=O)N[C@@H](CO)C(=O)O` (stereo partly drawn) [Example 2, N-[N-(3-hexadecanoyloxyoctadecanoyl)glycyl]-L-serine]: the “Anticomplementary Activity (IC50)” value in experiment [1] lay within 0.03 to 0.04 µg/mL. Further, in experiment [2] (setting [4]), the “protein uria level, 1st day” value is on record as 5.9 mg/12 hours; the “protein uria level, 4th day” value was determined as 3.7 mg/12 hours; the “protein uria level, 7th day” value worked out at 39.6 mg/12 hours. In experiment [2] (setting [5]), the “protein uria level, 1st day” value is listed as 3.5 mg/12 hours; the “protein uria level, 4th day” value was 5.5 mg/12 hours; the “protein uria level, 7th day” value was 16.5 mg/12 hours.

Regarding `CCCCCCCCCCCCCCCC(=O)OC(CCCCCCCCCCCCCCC)CC(=O)NCC(=O)N[C@@H](Cc1c[nH]c2ccccc12)C(=O)O` (stereo partly drawn) [Example 43, N-[N-(3-hexadecanoyloxyoctadecanoyl)glycyl]-L-tryptophan], the “Anticomplementary Activity (IC50)” value in experiment [1] worked out at 5.11 µg/mL. The “Fibrinolytic Activity (time needed for complete lysis of the blood clot)” value in experiment [3] is recorded as “+ (45 minutes (symbol: +) incubation)”.
